Test results reported in patent publication US20040235849A1, “Tetrahydroquinoxalines acting as bradykinin antagonists” (priority 2001, published 2004).

Molecular target: T1, human B1 receptor (Homo sapiens, UniProt P46663)
T1 construct: expressed in transfected cells
T1 sequence (P46663 1-353): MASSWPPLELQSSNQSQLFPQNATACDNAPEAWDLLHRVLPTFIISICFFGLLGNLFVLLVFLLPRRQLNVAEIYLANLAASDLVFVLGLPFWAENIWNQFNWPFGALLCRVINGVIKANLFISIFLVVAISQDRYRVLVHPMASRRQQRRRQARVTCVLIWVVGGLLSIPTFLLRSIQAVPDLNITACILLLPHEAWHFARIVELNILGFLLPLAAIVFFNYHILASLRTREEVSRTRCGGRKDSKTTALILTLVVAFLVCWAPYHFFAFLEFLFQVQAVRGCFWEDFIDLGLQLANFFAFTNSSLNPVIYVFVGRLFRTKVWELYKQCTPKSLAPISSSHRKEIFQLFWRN
Assay: Functional in vitro assay: B1 receptor antagonism measured via agonist-induced intracellular calcium release in recombinant cell lines
Assay type: cell-based
Details: stable cell lines, e.g. CHO or HEK 293, recombinantly expressing the human B1 receptor
Excerpt: 1. Functional in vitro Assay
Agonists such as des-Arg9-BK and des-Arg10-kallidin activate the B1 receptor and lead, via stimulation of phospholipase C, to release of calcium ions from intracellular stores. Antagonists block the activation of the receptor by the agonists and thus also the agonist-dependent stimulation of phospholipase C and the intracellular calcium release induced thereby.
A functional in vitro assay can be carried out with stable cell lines, e.g. CHO or HEK 293, which recombinantly express the human B1 receptor. This entails measuring the activation of the receptor by the agonist indirectly via the intracellular calcium release induced thereby (in microtiter plates with 96, 384 and 1536 wells/plate). The effect of the tested substances can be stated as IC50.

`O=C(CC1C(=O)Nc2ccccc2N1S(=O)(=O)c1cc(Cl)ccc1Oc1ccc(Cl)cc1)NC1CCCCCC1` (centres unmarked) [Example 170] was tested, and the IC50 was 25 nM.
`O=C(CC1C(=O)Nc2ccccc2N1S(=O)(=O)c1ccc(Cl)cc1Cl)NC1CCCCCC1` (centres unmarked) [Example 177] was tested, and the IC50 was 17 nM.
